Results taken from ChEMBL document CHEMBL1201862, “PubChem BioAssay data set” (2004).
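Tested at 5 concentrations; 48 h exposure; 96-well plates; endpoints linearly interpolated, else capped at highest concentration. The concentration for 50% growth inhibition is given as GI50.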 Active and inactive are the calls of the source. Cut-off read from the data, not from the text of the source: active = GI50 up to about 1.1 µM and inactive = higher.

What was measured:
Assay in all cases: inhibition of tumour cell growth, NCI panel, 48 h
786-0 = tested on: 786-0
A498 = tested on: A498
A549 = tested on: A549
ACHN = tested on: ACHN
CAKI-1 = tested on: CAKI-1
CCRF-CEM = tested on: CCRF-CEM
COLO 205 = tested on: COLO 205
DLD-1 = tested on: DLD-1
DMS-114 = tested on: DMS-114
DMS-273 = tested on: DMS-273
EKVX = tested on: EKVX
HCC 2998 = tested on: HCC 2998
HCT-116 = tested on: HCT-116
HCT-15 = tested on: HCT-15
HL-60 = tested on: HL-60
HOP-18 = tested on: HOP-18
HOP-62 = tested on: HOP-62
HOP-92 = tested on: HOP-92
HT-29 = tested on: HT-29
IGROV-1 = tested on: IGROV-1
K562 = tested on: K562
KM-20L2 = tested on: KM-20L2
KM12 = tested on: KM12
LXFL 529 = tested on: LXFL 529
M14 = tested on: M14
M19-MEL = tested on: M19-MEL
MOLT-4 = tested on: MOLT-4
Malme-3M = tested on: Malme-3M
NCI-H226 = tested on: NCI-H226
NCI-H23 = tested on: NCI-H23
NCI-H460 = tested on: NCI-H460
NCI-H522 = tested on: NCI-H522
OVCAR-3 = tested on: OVCAR-3
OVCAR-4 = tested on: OVCAR-4
OVCAR-5 = tested on: OVCAR-5
OVCAR-8 = tested on: OVCAR-8
RPMI-8226 = tested on: RPMI-8226
RXF 393 = tested on: RXF 393
RXF 631 = tested on: RXF 631
SF-268 = tested on: SF-268
SF-295 = tested on: SF-295
SF-539 = tested on: SF-539
SK-MEL-28 = tested on: SK-MEL-28
SK-MEL-2 = tested on: SK-MEL-2
SK-MEL-5 = tested on: SK-MEL-5
SK-OV-3 = tested on: SK-OV-3
SN12C = tested on: SN12C
SNB-19 = tested on: SNB-19
SNB-75 = tested on: SNB-75
SNB-78 = tested on: SNB-78
SR = tested on: SR
SW-620 = tested on: SW-620
TK-10 = tested on: TK-10
U-251 = tested on: U-251
UACC-257 = tested on: UACC-257
UACC-62 = tested on: UACC-62
UO-31 = tested on: UO-31
XF498 = tested on: XF498
LOX IMVI = tested on: LOX IMVI

SMILES: CC(=O)CC(N)=O
- GI50 (786-0): > 100 µM (inactive)
- GI50 (A498): > 100 µM (inactive)
- GI50 (A549): > 100 µM (inactive)
- GI50 (ACHN): > 100 µM (inactive)
- GI50 (CAKI-1): > 100 µM (inactive)
- GI50 (CCRF-CEM): > 100 µM (inactive)
- GI50 (COLO 205): > 100 µM (inactive)
- GI50 (DLD-1): > 100 µM (inactive)
- GI50 (DMS-114): > 100 µM (inactive)
- GI50 (DMS-273): > 100 µM (inactive)
- GI50 (EKVX): > 100 µM (inactive)
- GI50 (HCC 2998): > 100 µM (inactive)
- GI50 (HCT-116): > 100 µM (inactive)
- GI50 (HCT-15): > 100 µM
- GI50 (HL-60): > 100 µM (inactive)
- GI50 (HOP-18): > 100 µM (inactive)
- GI50 (HOP-62): > 100 µM (inactive)
- GI50 (HOP-92): > 100 µM (inactive)
- GI50 (HT-29): > 100 µM (inactive)
- GI50 (IGROV-1): > 100 µM (inactive)
- GI50 (K562): > 100 µM (inactive)
- GI50 (KM-20L2): > 100 µM (inactive)
- GI50 (KM12): > 100 µM (inactive)
- GI50 (LXFL 529): > 100 µM (inactive)
- GI50 (M14): > 100 µM (inactive)
- GI50 (M19-MEL): > 100 µM (inactive)
- GI50 (MOLT-4): > 100 µM (inactive)
- GI50 (Malme-3M): > 100 µM (inactive)
- GI50 (NCI-H226): > 100 µM (inactive)
- GI50 (NCI-H23): > 100 µM (inactive)
- GI50 (NCI-H460): > 100 µM (inactive)
- GI50 (NCI-H522): > 100 µM (inactive)
- GI50 (OVCAR-3): > 100 µM (inactive)
- GI50 (OVCAR-4): > 100 µM (inactive)
- GI50 (OVCAR-5): > 100 µM (inactive)
- GI50 (OVCAR-8): > 100 µM (inactive)
- GI50 (RPMI-8226): > 100 µM (inactive)
- GI50 (RXF 393): > 100 µM (inactive)
- GI50 (RXF 631): > 100 µM (inactive)
- GI50 (SF-268): > 100 µM (inactive)
- GI50 (SF-295): > 100 µM (inactive)
- GI50 (SF-539): > 100 µM (inactive)
- GI50 (SK-MEL-28): > 100 µM (inactive)
- GI50 (SK-MEL-2): > 100 µM (inactive)
- GI50 (SK-MEL-5): > 100 µM (inactive)
- GI50 (SK-OV-3): > 100 µM (inactive)
- GI50 (SN12C): > 100 µM (inactive)
- GI50 (SNB-19): > 100 µM (inactive)
- GI50 (SNB-75): > 100 µM (inactive)
- GI50 (SNB-78): > 100 µM (inactive)
- GI50 (SR): > 100 µM (inactive)
- GI50 (SW-620): > 100 µM (inactive)
- GI50 (TK-10): > 100 µM (inactive)
- GI50 (U-251): > 100 µM (inactive)
- GI50 (UACC-257): > 100 µM (inactive)
- GI50 (UACC-62): > 100 µM (inactive)
- GI50 (UO-31): > 100 µM (inactive)
- GI50 (XF498): > 100 µM (inactive)

SMILES: O=S(O)CCCCCSSCCCCSSCCCCCS(=O)O
- GI50 (786-0): > 100 µM (inactive)
- GI50 (A498): > 100 µM (inactive)
- GI50 (A549): > 100 µM (inactive)
- GI50 (ACHN): > 100 µM (inactive)
- GI50 (CAKI-1): > 100 µM (inactive)
- GI50 (CCRF-CEM): 41.2 µM (inactive)
- GI50 (COLO 205): > 100 µM (inactive)
- GI50 (DLD-1): > 100 µM (inactive)
- GI50 (DMS-114): > 100 µM (inactive)
- GI50 (DMS-273): > 100 µM (inactive)
- GI50 (EKVX): > 100 µM (inactive)
- GI50 (HCT-15): > 100 µM
- GI50 (HOP-18): > 100 µM (inactive)
- GI50 (HOP-62): > 100 µM (inactive)
- GI50 (HOP-92): > 100 µM (inactive)
- GI50 (HT-29): > 100 µM (inactive)
- GI50 (IGROV-1): > 100 µM (inactive)
- GI50 (K562): 48.1 µM (inactive)
- GI50 (KM-20L2): > 100 µM (inactive)
- GI50 (KM12): > 100 µM (inactive)
- GI50 (LOX IMVI): > 100 µM (inactive)
- GI50 (LXFL 529): 79.6 µM (inactive)
- GI50 (M14): > 100 µM (inactive)
- GI50 (M19-MEL): > 100 µM (inactive)
- GI50 (MOLT-4): 33.8 µM (inactive)
- GI50 (Malme-3M): 27.7 µM (inactive)
- GI50 (NCI-H23): > 100 µM (inactive)
- GI50 (NCI-H460): > 100 µM (inactive)
- GI50 (NCI-H522): 64.9 µM (inactive)
- GI50 (OVCAR-3): > 100 µM (inactive)
- GI50 (OVCAR-4): > 100 µM (inactive)
- GI50 (OVCAR-5): > 100 µM (inactive)
- GI50 (OVCAR-8): > 100 µM (inactive)
- GI50 (RPMI-8226): 97.5 µM (inactive)
- GI50 (RXF 393): > 100 µM (inactive)
- GI50 (RXF 631): > 100 µM (inactive)
- GI50 (SF-268): > 100 µM (inactive)
- GI50 (SF-295): > 100 µM (inactive)
- GI50 (SF-539): > 100 µM (inactive)
- GI50 (SK-MEL-28): > 100 µM (inactive)
- GI50 (SK-MEL-2): > 100 µM (inactive)
- GI50 (SK-MEL-5): > 100 µM (inactive)
- GI50 (SK-OV-3): > 100 µM (inactive)
- GI50 (SN12C): > 100 µM (inactive)
- GI50 (SNB-19): > 100 µM (inactive)
- GI50 (SNB-75): 30.8 µM (inactive)
- GI50 (SNB-78): > 100 µM (inactive)
- GI50 (SW-620): > 100 µM (inactive)
- GI50 (TK-10): > 100 µM (inactive)
- GI50 (U-251): > 100 µM (inactive)
- GI50 (UACC-257): > 100 µM (inactive)
- GI50 (UACC-62): > 100 µM (inactive)
- GI50 (UO-31): 85.3 µM (inactive)
- GI50 (XF498): 46.8 µM (inactive)
